Reference: doi:10.1101/2021.04.08.439011v1 (biorxiv, 2021)
Where two headings read alike, the source gives them in different places.

How the values were obtained:
[1] = molecular target: CDK4-cyclinD1 (Homo sapiens, UniProt P11802); settings: 0.1 µM; binder
[2] = molecular target: GCN2(Kin.Dom.2,S808G) (Homo sapiens, UniProt Q9P2K8, S808G); settings: 0.1 µM; binder
[3] = molecular target: TYK2(JH2domain-pseudokinase) (Homo sapiens, UniProt P29597); settings: 0.1 µM; binder
[4] = molecular target: PKNB (M. tuberculosis) (Mycobacterium tuberculosis, UniProt P9WI81); settings: 0.1 µM; binder
[5] = molecular target: PFPK5(P. falciparum) (Plasmodium falciparum, UniProt P61075); settings: 0.1 µM; binder
[6] = molecular target: RSK2(Kin.Dom.1-N-terminal) (Homo sapiens, UniProt P51812); settings: 0.1 µM; binder
[7] = molecular target: BRK (Homo sapiens, UniProt Q13882); settings: 1 µM; binder
[8] = molecular target: BUB1 (Homo sapiens, UniProt O43683); settings: 1 µM; binder
[9] = molecular target: FGFR3 (Homo sapiens, UniProt P22607); settings: 1 µM; binder
[10] = molecular target: FLT1 (Homo sapiens, UniProt P17948); settings: 1 µM; binder
[11] = molecular target: T1, FLT3 (Homo sapiens, UniProt P36888); settings: 1 µM; binder
T1 sequence (P36888 1-993): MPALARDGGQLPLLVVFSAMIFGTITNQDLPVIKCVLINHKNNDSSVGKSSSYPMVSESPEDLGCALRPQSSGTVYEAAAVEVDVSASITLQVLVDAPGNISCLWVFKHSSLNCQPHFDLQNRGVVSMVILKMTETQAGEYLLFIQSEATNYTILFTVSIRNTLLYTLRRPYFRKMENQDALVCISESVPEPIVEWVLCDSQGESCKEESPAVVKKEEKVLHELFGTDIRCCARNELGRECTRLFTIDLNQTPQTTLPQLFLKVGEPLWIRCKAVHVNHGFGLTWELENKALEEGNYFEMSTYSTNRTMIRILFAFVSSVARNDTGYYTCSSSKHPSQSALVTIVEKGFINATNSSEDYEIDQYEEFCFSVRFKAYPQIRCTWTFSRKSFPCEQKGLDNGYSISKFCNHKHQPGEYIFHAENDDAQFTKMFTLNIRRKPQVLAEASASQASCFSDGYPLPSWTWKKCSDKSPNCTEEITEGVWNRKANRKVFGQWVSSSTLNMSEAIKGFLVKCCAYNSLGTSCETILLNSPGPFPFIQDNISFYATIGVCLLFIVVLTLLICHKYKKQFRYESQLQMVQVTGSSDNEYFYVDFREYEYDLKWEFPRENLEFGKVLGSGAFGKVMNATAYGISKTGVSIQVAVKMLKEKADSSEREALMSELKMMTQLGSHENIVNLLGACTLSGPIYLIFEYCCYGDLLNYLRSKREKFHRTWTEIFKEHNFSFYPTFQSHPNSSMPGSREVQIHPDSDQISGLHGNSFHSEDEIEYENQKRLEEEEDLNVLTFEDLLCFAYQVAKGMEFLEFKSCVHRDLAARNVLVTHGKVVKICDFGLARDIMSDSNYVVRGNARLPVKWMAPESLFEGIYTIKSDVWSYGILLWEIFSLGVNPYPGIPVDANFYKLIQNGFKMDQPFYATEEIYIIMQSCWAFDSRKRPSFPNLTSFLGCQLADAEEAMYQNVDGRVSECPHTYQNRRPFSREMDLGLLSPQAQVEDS

[12] = molecular target: IKK-epsilon (Homo sapiens, UniProt Q14164); settings: 1 µM; binder
[13] = molecular target: LKB1 (Homo sapiens, UniProt Q15831); settings: 1 µM; binder
[14] = molecular target: MAP3K4 (Homo sapiens, UniProt Q9Y6R4); settings: 1 µM; binder
[15] = molecular target: MARK3 (Homo sapiens, UniProt P27448); settings: 1 µM; binder
[16] = molecular target: NEK10 (Homo sapiens, UniProt Q6ZWH5); settings: 1 µM; binder
[17] = molecular target: PAK6 (Homo sapiens, UniProt Q9NQU5); settings: 1 µM; binder
[18] = molecular target: PIP4K2B (Homo sapiens, UniProt P78356); settings: 1 µM; binder
[19] = molecular target: RPS6KA1 (Homo sapiens, UniProt Q15418); settings: binder
[20] = molecular target: RPS6KA5 (Homo sapiens, UniProt O75582); settings: Kin.Dom.1 N-terminal; binder
[21] = molecular target: SLK (Homo sapiens, UniProt Q9H2G2); settings: 1 µM; binder

Sequence of RPS6KA1 (Q15418 whole entry): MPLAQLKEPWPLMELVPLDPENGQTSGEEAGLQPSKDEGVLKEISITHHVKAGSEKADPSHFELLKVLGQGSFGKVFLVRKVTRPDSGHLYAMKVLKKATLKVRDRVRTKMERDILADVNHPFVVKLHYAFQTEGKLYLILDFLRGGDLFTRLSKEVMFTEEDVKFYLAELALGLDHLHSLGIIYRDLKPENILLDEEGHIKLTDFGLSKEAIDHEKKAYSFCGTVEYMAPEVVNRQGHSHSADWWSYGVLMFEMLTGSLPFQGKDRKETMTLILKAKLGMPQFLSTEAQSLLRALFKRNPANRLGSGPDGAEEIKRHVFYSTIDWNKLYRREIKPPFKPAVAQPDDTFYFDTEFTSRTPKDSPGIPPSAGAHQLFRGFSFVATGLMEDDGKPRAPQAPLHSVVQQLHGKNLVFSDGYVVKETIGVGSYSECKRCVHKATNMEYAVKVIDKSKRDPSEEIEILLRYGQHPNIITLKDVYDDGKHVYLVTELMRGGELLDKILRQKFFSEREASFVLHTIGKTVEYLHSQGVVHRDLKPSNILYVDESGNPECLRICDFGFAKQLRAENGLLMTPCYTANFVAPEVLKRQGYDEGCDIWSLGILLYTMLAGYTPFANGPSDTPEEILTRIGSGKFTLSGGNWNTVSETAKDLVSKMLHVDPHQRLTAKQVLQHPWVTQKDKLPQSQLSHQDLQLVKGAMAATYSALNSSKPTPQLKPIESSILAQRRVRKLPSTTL
Sequence of NEK10 (Q6ZWH5 whole entry): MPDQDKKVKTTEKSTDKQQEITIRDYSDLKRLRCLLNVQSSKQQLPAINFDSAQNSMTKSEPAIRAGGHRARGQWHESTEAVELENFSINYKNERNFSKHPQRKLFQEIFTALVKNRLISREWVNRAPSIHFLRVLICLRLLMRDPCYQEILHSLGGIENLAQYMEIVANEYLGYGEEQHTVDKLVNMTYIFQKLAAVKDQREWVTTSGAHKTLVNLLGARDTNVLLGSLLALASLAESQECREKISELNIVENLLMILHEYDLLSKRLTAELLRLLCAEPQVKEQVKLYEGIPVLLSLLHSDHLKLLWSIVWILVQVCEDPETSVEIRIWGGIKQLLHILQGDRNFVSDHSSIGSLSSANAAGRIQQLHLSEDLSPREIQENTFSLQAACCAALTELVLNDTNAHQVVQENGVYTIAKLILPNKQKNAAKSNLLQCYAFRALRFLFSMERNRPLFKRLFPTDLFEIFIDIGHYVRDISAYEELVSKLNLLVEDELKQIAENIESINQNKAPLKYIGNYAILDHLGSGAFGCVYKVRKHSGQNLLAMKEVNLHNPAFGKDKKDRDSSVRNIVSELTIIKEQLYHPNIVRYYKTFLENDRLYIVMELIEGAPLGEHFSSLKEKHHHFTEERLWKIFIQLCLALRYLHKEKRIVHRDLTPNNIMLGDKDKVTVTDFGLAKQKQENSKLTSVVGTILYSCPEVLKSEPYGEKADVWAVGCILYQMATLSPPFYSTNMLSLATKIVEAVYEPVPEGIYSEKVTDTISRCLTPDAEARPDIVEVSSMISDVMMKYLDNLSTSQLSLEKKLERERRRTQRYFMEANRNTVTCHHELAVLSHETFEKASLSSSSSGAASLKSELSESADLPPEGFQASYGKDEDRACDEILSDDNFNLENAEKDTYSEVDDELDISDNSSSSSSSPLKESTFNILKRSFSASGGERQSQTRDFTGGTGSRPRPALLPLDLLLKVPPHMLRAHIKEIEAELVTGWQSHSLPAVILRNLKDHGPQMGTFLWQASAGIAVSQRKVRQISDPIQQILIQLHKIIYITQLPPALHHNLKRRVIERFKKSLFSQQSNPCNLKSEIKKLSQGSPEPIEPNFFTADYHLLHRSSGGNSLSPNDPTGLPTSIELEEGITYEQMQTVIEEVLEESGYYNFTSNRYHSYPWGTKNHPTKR
Sequence of GCN2(Kin.Dom.2,S808G) (Q9P2K8 whole entry S808G): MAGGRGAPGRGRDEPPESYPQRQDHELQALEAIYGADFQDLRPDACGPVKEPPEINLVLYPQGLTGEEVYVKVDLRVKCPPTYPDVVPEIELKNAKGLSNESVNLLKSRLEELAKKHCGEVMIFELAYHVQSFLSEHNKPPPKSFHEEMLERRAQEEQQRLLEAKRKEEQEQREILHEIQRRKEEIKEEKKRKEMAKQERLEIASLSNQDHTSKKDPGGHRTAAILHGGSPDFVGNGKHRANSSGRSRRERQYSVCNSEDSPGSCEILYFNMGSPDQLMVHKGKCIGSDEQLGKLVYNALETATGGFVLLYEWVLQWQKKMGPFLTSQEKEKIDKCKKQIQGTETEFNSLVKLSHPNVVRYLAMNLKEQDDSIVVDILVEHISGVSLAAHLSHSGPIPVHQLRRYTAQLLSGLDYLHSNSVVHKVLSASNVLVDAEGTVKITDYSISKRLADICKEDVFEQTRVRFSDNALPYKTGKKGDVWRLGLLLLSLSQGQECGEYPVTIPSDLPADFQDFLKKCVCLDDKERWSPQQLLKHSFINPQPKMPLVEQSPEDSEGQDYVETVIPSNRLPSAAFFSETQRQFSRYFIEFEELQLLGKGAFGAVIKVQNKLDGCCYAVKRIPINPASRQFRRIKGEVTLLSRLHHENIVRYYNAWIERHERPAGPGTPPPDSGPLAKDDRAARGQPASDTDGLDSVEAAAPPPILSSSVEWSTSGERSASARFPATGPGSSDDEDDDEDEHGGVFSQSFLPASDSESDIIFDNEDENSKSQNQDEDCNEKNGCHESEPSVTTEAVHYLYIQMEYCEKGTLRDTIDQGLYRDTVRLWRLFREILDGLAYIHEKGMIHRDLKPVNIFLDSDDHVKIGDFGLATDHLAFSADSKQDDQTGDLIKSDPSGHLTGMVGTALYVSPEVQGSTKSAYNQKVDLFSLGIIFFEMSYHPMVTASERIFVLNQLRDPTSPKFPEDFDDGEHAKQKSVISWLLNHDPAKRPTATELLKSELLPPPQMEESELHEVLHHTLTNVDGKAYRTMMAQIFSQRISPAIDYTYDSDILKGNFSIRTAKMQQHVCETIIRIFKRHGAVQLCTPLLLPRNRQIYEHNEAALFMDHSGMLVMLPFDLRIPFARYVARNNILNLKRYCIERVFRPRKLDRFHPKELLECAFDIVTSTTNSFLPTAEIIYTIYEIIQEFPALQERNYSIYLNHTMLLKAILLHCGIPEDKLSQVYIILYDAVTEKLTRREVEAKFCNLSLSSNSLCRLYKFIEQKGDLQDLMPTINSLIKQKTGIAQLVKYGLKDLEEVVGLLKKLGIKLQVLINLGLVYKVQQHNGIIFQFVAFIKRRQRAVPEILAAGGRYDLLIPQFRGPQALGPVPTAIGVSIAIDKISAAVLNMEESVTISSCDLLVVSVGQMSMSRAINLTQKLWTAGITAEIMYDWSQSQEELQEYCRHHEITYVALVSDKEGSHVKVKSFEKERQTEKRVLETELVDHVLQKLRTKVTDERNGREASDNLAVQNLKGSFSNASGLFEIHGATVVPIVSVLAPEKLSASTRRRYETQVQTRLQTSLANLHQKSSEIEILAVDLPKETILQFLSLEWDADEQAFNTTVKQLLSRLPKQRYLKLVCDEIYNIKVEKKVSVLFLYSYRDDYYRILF
Sequence of RSK2(Kin.Dom.1-N-terminal) (P51812 whole entry): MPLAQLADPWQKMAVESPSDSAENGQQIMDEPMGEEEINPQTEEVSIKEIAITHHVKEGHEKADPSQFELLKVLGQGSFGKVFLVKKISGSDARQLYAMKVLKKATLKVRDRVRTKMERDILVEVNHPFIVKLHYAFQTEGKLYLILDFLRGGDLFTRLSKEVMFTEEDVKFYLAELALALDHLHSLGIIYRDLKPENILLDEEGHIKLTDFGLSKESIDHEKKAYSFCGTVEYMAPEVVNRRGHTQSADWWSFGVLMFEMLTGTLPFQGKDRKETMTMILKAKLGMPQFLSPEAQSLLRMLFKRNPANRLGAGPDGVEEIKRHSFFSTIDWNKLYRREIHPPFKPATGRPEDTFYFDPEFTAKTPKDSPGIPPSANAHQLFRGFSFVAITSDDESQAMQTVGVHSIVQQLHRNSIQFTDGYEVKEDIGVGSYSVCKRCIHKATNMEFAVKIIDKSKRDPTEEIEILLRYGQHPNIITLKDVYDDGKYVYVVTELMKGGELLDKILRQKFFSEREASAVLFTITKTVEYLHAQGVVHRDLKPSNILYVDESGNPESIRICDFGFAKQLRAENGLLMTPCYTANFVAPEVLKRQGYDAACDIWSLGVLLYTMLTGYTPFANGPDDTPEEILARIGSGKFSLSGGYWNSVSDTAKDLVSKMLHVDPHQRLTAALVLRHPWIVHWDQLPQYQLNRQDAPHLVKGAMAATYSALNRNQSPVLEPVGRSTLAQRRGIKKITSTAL
Sequence of PFPK5(P. falciparum) (P61075 whole entry): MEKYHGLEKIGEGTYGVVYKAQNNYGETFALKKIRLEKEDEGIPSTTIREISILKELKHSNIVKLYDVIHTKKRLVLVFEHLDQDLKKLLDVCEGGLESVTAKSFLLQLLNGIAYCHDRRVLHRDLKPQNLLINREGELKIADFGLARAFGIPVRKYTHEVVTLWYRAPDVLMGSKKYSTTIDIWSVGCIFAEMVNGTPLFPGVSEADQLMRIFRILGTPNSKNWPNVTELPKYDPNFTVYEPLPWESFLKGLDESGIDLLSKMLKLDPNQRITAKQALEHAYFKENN
Sequence of BRK (Q13882 whole entry): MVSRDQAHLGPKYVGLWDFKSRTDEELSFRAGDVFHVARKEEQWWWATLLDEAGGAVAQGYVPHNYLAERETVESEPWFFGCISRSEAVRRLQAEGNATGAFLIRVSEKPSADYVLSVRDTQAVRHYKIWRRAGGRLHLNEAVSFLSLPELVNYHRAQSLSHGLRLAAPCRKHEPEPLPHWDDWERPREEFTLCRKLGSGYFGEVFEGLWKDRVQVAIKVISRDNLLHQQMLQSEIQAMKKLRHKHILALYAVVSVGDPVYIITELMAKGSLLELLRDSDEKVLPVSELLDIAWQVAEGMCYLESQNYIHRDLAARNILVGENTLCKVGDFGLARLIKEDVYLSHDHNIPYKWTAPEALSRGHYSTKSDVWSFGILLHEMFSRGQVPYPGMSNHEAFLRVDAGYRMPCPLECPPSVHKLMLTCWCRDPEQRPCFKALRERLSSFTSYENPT

CNc1ncc2cc(-c3ccc(-c4cccc(C)n4)cc3Cl)c(=O)n(C[C@H]3OC[C@H](N)CO3)c2n1 [compound 6, G-5555]
Percent Control [1]: 100%
Percent Control [2]: 76%
Percent Control [3]: 84%
Percent Control [4]: 100%
Percent Control [5]: 90%
Percent Control [6]: 94%
Percent Control [7]: 100%
Percent Control [8]: 89%
Percent Control [9]: 100%
Percent Control [10]: 100%
Percent Control [11]: 100%
Percent Control [12]: 78%
Percent Control [13]: 100%
Percent Control [14]: 52%
Percent Control [15]: 18%
Percent Control [16]: 100%
Percent Control [17]: 45%
Percent Control [18]: 87%
Percent Control ([19]; Kin.Dom.1 N-terminal): 69%
Percent Control ([19]; Kin.Dom.2 C-terminal, 1 µM): 81%
Percent Control [20]: 100%
Percent Control [21]: 33%
